ChEMBL document CHEMBL4049438, “Discovery and Optimization of Isoquinoline Ethyl Ureas as Antibacterial Agents” (J Med Chem, 2017)
≈ marks a conversion by molar mass, not a printed value. Calls of active or inactive are those of the source. The calls are words filed in the database; no cut-off is given here.

Tests used:
[1] = Inhibition of Escherichia coli N-terminal His6-tagged DNA gyrase subunit GyrA/GyrB ATPase activity expressed in Escherichia coli BL21 (DE3) after 40 mins by spectrophotometric analysis
[2] = tested on: Escherichia coli; test: Inhibition of Escherichia coli N-terminal His6-tagged DNA gyrase subunit GyrA/GyrB ATPase activity at 100 to 500 uM after 40 mins by spectrophotometric analysis
[3] = Octanol-phosphate buffer partition coefficient, logD of compound at pH 7.4 by LC/UV analysis; assay type: physicochemical
[4] = Inhibition of Staphylococcus aureus topoisomerase 4 subunit ParC/ParE relaxation expressed in Escherichia coli BL21 (DE3) using supercoiled pBR322 DNA as substrate after 1 hr by agarose gel electrophoresis
[5] = Dissociation constant, pKa of the compound by pH metric assay; assay type: physicochemical
[6] = biological target: DNA gyrase (Staphylococcus aureus, UniProt P0A0K8+P20831)
Description: Inhibition of Staphylococcus aureus N-terminal His6-tagged DNA gyrase subunit GyrA/GyrB supercoiling activity expressed in Escherichia coli BL21 (DE3) using relaxed pBR322 DNA as substrate after 1 hr by agarose gel electrophoresis

[7] = biological target: hERG (KCNH2) (Homo sapiens, UniProt Q12809); test: Inhibition of human ERG expressed in CHO cells at 10 uM after 3 mins at -80 mV holding potential by Qpatch assay; assay type: cell-based; settings: CHO cells expressing human ERG
[8] = tested on: Staphylococcus aureus; test: Antibacterial activity against Staphylococcus aureus ATCC 29213 by broth microdilution method; assay type: functional
[9] = Inhibition of Escherichia coli DNA topoisomerase 4 subunit ParC/ParE relaxation expressed in Escherichia coli BL21 (DE3) using supercoiled pBR322 DNA as substrate after 1 hr by agarose gel electrophoresis
[10] = tested on: Escherichia coli; test: Antibacterial activity against TolC deficient Escherichia coli by broth microdilution method; assay type: functional
[11] = Inhibition of Escherichia coli N-terminal His6-tagged DNA gyrase subunit GyrA/GyrB supercoiling activity expressed in Escherichia coli BL21 (DE3) using relaxed pBR322 DNA as substrate after 1 hr by agarose gel electrophoresis

Sequence of DNA gyrase (P0A0K8 whole entry): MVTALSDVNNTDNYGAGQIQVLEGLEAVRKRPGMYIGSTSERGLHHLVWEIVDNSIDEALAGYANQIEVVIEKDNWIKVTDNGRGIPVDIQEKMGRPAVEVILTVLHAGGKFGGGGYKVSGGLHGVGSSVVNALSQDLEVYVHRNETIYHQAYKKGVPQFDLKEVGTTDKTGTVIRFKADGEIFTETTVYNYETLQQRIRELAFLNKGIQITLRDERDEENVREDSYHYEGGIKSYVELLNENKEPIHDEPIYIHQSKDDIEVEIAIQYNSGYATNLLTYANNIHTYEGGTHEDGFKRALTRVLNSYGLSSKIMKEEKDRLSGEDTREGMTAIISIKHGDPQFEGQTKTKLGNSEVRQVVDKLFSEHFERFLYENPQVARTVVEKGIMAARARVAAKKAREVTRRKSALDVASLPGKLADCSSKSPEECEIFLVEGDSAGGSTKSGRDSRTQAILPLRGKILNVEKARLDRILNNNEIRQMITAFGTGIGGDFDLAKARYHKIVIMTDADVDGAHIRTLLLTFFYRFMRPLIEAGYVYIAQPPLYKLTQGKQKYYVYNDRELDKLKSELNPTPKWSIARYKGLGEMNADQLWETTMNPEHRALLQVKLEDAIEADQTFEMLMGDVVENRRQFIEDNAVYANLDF
Sequence of DNA gyrase (P20831 whole entry): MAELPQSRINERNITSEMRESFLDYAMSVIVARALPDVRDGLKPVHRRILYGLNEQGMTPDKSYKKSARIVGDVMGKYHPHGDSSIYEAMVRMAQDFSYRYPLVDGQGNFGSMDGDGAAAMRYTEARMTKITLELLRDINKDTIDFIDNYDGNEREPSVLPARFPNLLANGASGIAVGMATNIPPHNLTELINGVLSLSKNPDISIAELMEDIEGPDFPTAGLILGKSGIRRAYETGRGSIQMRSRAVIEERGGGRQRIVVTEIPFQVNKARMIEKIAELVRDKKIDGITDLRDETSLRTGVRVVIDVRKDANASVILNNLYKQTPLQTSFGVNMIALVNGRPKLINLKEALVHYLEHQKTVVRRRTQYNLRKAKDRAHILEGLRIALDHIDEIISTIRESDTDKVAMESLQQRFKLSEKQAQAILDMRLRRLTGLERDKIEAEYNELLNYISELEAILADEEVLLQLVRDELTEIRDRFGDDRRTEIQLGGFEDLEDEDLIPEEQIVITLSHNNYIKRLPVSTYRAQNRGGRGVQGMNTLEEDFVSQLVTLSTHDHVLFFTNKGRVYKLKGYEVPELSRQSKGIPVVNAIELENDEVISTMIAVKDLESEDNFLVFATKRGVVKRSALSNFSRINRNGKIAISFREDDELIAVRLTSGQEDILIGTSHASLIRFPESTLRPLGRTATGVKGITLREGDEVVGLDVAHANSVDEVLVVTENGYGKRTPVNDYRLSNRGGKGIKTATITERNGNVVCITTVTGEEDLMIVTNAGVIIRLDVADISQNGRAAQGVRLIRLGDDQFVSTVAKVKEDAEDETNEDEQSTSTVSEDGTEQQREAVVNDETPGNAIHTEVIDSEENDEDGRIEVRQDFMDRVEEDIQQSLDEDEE
Sequence of hERG (KCNH2) (Q12809 whole entry): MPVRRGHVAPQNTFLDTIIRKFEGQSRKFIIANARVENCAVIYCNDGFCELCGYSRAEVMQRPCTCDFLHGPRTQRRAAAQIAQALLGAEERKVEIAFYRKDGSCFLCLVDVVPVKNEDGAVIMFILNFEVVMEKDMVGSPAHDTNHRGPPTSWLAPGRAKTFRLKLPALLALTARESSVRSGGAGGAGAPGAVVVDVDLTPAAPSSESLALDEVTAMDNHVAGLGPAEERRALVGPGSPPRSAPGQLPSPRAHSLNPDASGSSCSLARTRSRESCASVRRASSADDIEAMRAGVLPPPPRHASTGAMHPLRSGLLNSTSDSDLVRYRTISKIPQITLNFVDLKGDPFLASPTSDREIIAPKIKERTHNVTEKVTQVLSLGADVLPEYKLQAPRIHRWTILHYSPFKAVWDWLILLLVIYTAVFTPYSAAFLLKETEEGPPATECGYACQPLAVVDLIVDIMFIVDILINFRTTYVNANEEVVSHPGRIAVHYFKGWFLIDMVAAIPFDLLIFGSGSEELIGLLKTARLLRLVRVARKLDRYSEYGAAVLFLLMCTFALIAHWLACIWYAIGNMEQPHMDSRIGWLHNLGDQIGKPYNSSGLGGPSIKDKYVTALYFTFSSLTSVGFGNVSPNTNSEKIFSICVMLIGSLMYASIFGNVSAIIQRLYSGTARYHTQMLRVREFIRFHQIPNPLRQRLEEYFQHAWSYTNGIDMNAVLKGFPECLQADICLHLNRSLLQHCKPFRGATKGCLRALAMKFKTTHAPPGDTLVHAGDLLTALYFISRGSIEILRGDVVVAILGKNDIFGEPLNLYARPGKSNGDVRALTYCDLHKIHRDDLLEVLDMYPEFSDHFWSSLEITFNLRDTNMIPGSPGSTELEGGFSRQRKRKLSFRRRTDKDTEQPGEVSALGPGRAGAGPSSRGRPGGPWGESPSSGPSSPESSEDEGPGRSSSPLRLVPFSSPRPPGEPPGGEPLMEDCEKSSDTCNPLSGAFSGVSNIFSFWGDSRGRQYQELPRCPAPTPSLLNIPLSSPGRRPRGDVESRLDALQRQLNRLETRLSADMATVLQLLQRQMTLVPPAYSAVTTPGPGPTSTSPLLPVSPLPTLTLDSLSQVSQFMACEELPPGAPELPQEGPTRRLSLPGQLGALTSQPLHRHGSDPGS

Compound: CCNC(=O)Nc1ccccn1
- IC50 [1]: > 200 µM
- inhibition [2]: Active

Compound: CCNC(=O)Nc1cc2c(-c3ccnc(C)c3)ccc(COC(=O)NC3CCNCC3)c2cn1
- logD [3]: 0.8
- IC50 [4]: 0.5 µM
- pKa [5]: 9.8
- IC50 [6]: 0.008 µM
- inhibition at 0.05 h, 10 µM [7]: 2%
- MIC [8]: 16 mg/L (≈ 34.6 µM)

Compound: CCNC(=O)Nc1cc2c(-c3ccnc(C)c3)ccc(COC(=O)N3CCNCC3)c2cn1
- logD [3]: 1.9
- IC50 [4]: 0.5 µM
- pKa [5]: 8.1
- IC50 [6]: 0.008 µM
- inhibition at 0.05 h, 10 µM [7]: 0%
- MIC [8]: 2 mg/L (≈ 4.46 µM)

Compound: CCNC(=O)Nc1cc2ccccc2cn1
- IC50 [1]: 20 µM
- inhibition [2]: Active
- IC50 [4]: > 256 µM
- IC50 [6]: 128 µM
- IC50 [9]: > 256 µM
- MIC [10]: > 32 mg/L
- MIC [8]: > 32 mg/L

Compound: CCNC(=O)Nc1cc2c(-c3ccncc3)ccc(CNC(=O)OC)c2cn1
- logD [3]: 2.7
- IC50 [4]: 0.5 µM
- IC50 [6]: < 0.004 µM
- inhibition at 0.05 h, 10 µM [7]: 41%
- MIC [8]: 0.125 mg/L (≈ 0.329 µM)

Compound: CCNC(=O)Nc1cc2c(-c3ccnc(C)c3)ccc(COC(=O)N[C@@H]3CCNC[C@@H]3F)c2cn1 (relative stereo)
- logD [3]: 1.5
- IC50 [4]: 0.125 µM
- pKa [5]: 8.1
- IC50 [6]: 0.008 µM
- inhibition at 0.05 h, 10 µM [7]: 8%
- MIC [8]: 4 mg/L (≈ 8.32 µM)

Compound: CCNC(=O)Nc1cc2c(-c3ccnc(C)c3)ccc(CNC(=O)C3CC3)c2cn1
- logD [3]: 3.4
- IC50 [4]: 2 µM
- IC50 [6]: < 0.004 µM
- inhibition at 0.05 h, 10 µM [7]: 75%
- MIC [8]: 0.06 mg/L (≈ 0.149 µM)

Compound: CCNC(=O)Nc1cc2cccc(C)c2cn1
- IC50 [11]: 32 µM
- IC50 [1]: 1 µM
- IC50 [4]: > 256 µM
- IC50 [6]: 8 µM
- IC50 [9]: 128 µM
- MIC [10]: > 32 mg/L
- MIC [8]: 32 mg/L (≈ 140 µM)

Compound: CCNC(=O)Nc1cc2c(-c3ccncn3)ccc(C)c2cn1
- IC50 [1]: < 0.2 µM
- IC50 [4]: 32 µM
- IC50 [6]: 0.5 µM
- IC50 [9]: 32 µM
- MIC [10]: 4 mg/L (≈ 13 µM)
- MIC [8]: 4 mg/L (≈ 13 µM)

Compound: CCNC(=O)Nc1cc2c(-c3ccncc3)ccc(CNC(=O)OCCO)c2cn1
- logD [3]: 2
- IC50 [4]: 0.5 µM
- IC50 [6]: < 0.004 µM
- inhibition at 0.05 h, 10 µM [7]: 0%
- MIC [8]: 2 mg/L (≈ 4.88 µM)

Compound: CCNC(=O)Nc1nccc2ccccc12
- IC50 [1]: > 200 µM
- inhibition [2]: Active

Compound: CCNC(=O)Nc1cc2c(-c3ccncc3)ccc(-c3cccnc3)c2cn1
- IC50 [11]: 2 µM
- IC50 [4]: > 256 µM
- IC50 [6]: 0.125 µM
- IC50 [9]: > 256 µM
- MIC [8]: > 16 mg/L

Compound: CCNC(=O)Nc1cc2c(-c3ccnc(C)c3)ccc(Nc3cccc(C(=O)O)c3)c2cn1
- IC50 [4]: 0.125 µM
- IC50 [6]: 0.008 µM
- IC50 [9]: 0.5 µM
- MIC [8]: 0.5 mg/L (≈ 1.13 µM)

Compound: CCNC(=O)Nc1cc2c(-c3ccnc(C)c3)ccc(COC(=O)N[C@@H]3CCNC[C@H]3F)c2cn1 (relative stereo)
- logD [3]: 2.2
- IC50 [4]: 0.125 µM
- pKa [5]: 7.7
- IC50 [6]: 0.008 µM
- inhibition at 0.05 h, 10 µM [7]: 9%
- MIC [8]: 2 mg/L (≈ 4.16 µM)

Compound: CCNC(=O)Nc1nc2c(s1)CNCC2
- IC50 [1]: 200 µM
- inhibition [2]: Active

Compound: CCNC(=O)Nc1cc2c(-c3cccnc3)ccc(C)c2cn1
- IC50 [11]: 2 µM
- IC50 [1]: < 0.2 µM
- IC50 [4]: > 256 µM
- IC50 [6]: 0.125 µM
- IC50 [9]: > 256 µM
- MIC [10]: > 32 mg/L
- MIC [8]: 2 mg/L (≈ 6.53 µM)

Compound: CCNC(=O)Nc1nccs1
- IC50 [1]: > 200 µM
- inhibition [2]: Active

Compound: CCNC(=O)Nc1nc2c(s1)CCCC2
- IC50 [1]: 200 µM
- inhibition [2]: Active

Compound: CCNC(=O)Nc1cc2c(-c3ccnc(C)c3)ccc(Cc3cccnc3)c2cn1.Cl
- IC50 [11]: 0.125 µM
- IC50 [4]: 2 µM
- IC50 [6]: 0.03 µM
- IC50 [9]: 8 µM
- MIC [8]: 0.5 mg/L

Compound: CCNC(=O)Nc1cc2c(-c3cccnc3)cccc2cn1
- IC50 [11]: 32 µM
- IC50 [1]: 1 µM
- IC50 [4]: > 256 µM
- IC50 [6]: 8 µM
- IC50 [9]: 128 µM
- MIC [10]: > 32 mg/L
- MIC [8]: > 32 mg/L

Compound: CCNC(=O)Nc1cc2c(-c3cncnc3)ccc(C)c2cn1
- IC50 [11]: 2 µM
- IC50 [1]: < 0.2 µM
- IC50 [4]: > 256 µM
- IC50 [6]: 0.5 µM
- IC50 [9]: > 256 µM
- MIC [10]: > 32 mg/L
- MIC [8]: > 32 mg/L

Compound: CCNC(=O)Nc1nc2ccccc2s1
- IC50 [1]: 20 µM
- inhibition [2]: Active

Compound: CCNC(=O)Nc1cc2c(-c3ccnc(C)c3)ccc(CNC(=O)OC3CCNCC3(F)F)c2cn1 (centres undefined)
- logD [3]: 3.1
- IC50 [4]: 2 µM
- pKa [5]: 6.5
- IC50 [6]: 0.008 µM
- inhibition at 0.05 h, 10 µM [7]: 8%
- MIC [8]: 0.5 mg/L (≈ 1 µM)

Compound: CCNC(=O)Nc1cc2c(-c3ccncc3)ccc(CNC(=O)OCCNC)c2cn1
- logD [3]: 0.2
- IC50 [4]: 2 µM
- pKa [5]: 9
- IC50 [6]: 0.03 µM
- inhibition at 0.05 h, 10 µM [7]: 3%
- MIC [8]: > 32 mg/L

Compound: CCNC(=O)Nc1cc2c(-c3ccc(C#N)cc3)ccc(C)c2cn1
- IC50 [11]: 0.125 µM
- IC50 [1]: < 0.2 µM
- IC50 [4]: > 256 µM
- IC50 [6]: 0.03 µM
- IC50 [9]: > 256 µM
- MIC [10]: > 32 mg/L
- MIC [8]: > 32 mg/L

Compound: CCNC(=O)Nc1ncc2ccccc2n1
- IC50 [1]: > 200 µM
- inhibition [2]: Active

Compound: CCNC(=O)Nc1cc2c(-c3ccncc3)ccc(Oc3cccnc3)c2cn1
- IC50 [11]: 0.125 µM
- IC50 [4]: 2 µM
- IC50 [6]: 0.03 µM
- IC50 [9]: 8 µM
- MIC [8]: 0.25 mg/L (≈ 0.649 µM)

Compound: CCNC(=O)Nc1cc2c(-c3cnn(C)c3)ccc(C)c2cn1.Cl
- IC50 [11]: 8 µM
- IC50 [1]: < 0.2 µM
- IC50 [4]: > 256 µM
- IC50 [6]: 0.125 µM
- IC50 [9]: 32 µM
- MIC [10]: 16 mg/L
- MIC [8]: 4 mg/L

Compound: CCNC(=O)Nc1cc2c(-c3ccncc3)ccc(Nc3cccnc3)c2cn1
- IC50 [11]: 0.03 µM
- IC50 [4]: 0.125 µM
- IC50 [6]: 0.008 µM
- IC50 [9]: 0.5 µM
- MIC [8]: 0.06 mg/L (≈ 0.156 µM)

Compound: CCNC(=O)Nc1cc2c(-c3ccnc(C)c3)ccc(CNC(=O)CCOC)c2cn1
- logD [3]: 2.6
- IC50 [4]: 2 µM
- IC50 [6]: 0.008 µM
- inhibition at 0.05 h, 10 µM [7]: 0%
- MIC [8]: 0.5 mg/L (≈ 1.19 µM)

Compound: CCNC(=O)Nc1cnc2ccccc2n1
- IC50 [1]: 20 µM
- inhibition [2]: Active

Compound: CCNC(=O)Nc1ccc2ccccc2n1
- IC50 [1]: 70 µM
- inhibition [2]: Active

Compound: CCNC(=O)Nc1nc2c(s1)NC(=O)CC2
- IC50 [1]: 20 µM
- inhibition [2]: Active

Compound: CCNC(=O)Nc1cc2c(-c3ccnc(C)c3)ccc(C)c2cn1
- IC50 [11]: 0.125 µM
- IC50 [1]: < 0.2 µM
- IC50 [4]: 8 µM
- IC50 [6]: 0.03 µM
- IC50 [9]: 8 µM
- MIC [10]: 4 mg/L (≈ 12.5 µM)
- MIC [8]: 0.5 mg/L (≈ 1.56 µM)

Compound: CCNC(=O)Nc1nc2ccncc2s1
- IC50 [1]: 20 µM
- inhibition [2]: Active

Compound: CCNC(=O)Nc1cc2c(-c3ccnc(C)c3)ccc(CNC(=O)OCCO)c2cn1
- logD [3]: 2.5
- IC50 [4]: 8 µM
- IC50 [6]: 0.03 µM
- inhibition at 0.05 h, 10 µM [7]: 19%
- MIC [8]: 1 mg/L (≈ 2.36 µM)

Compound: CCNC(=O)Nc1cc2c(-c3ccncc3)ccc(CNC(=O)OC(C)C)c2cn1
- logD [3]: 3.7
- IC50 [4]: 0.5 µM
- IC50 [6]: < 0.004 µM
- inhibition at 0.05 h, 10 µM [7]: 63%
- MIC [8]: 0.25 mg/L (≈ 0.614 µM)
